Data set [1] can be described thus: Permeability of the compound by artificial membrane permeability assay. The data set is classed as ADME. Particulars: PAMPA; read-out: permeability.
Data set [2] in a line: Kinetic solubility in pH 7.4 phosphate buffered saline incubated for 1 hr by chemiluminescent nitrogen detection method. The data set is classed as physicochemical. Conditions: read-out: Kinetic_solubility.
A short description of data set [3]: Cytotoxicity against human HepG2 cells incubated for 48 hrs by Cell-titer Glo assay. The data set is classed as cell-based. Conditions: read-out: TC50.
For a further data set, the target named is Albumin (Homo sapiens, UniProt P02768). The data set can be described thus: Binding affinity to human serum albumin. The data set is classed as ADME. Particulars: isolated protein.
The test system of data set [4] is Mycobacterium tuberculosis. In words: microbe, parasite or virus in culture. Particulars: 144 h.
Description: Antitubercular activity against Mycobacterium tuberculosis after 6 days by resazurin-based fluorescence assay
A short description of data set [5]: Solubility of the compound in FaSSIF at pH 6.5 incubated for 4 hrs by UPLC-MS method. The data set is classed as physicochemical.
A short description of data set [6]: Lipophilicity, log D of the compound at pH 7.4 by UV-HPLC method. The data set is classed as physicochemical. Conditions: buffer.
The subject of data set [7] is HepG2. In words: Cytotoxicity against human HepG2 cells assessed as compound concentration causing changes in nuclear morphology by Cell Health assay. The data set is classed as cell-based.
For data set [8], the target named is Voltage-gated inwardly rectifying potassium channel KCNH2 (Homo sapiens, UniProt Q12809). In words: Inhibition of human ERG by [3H]dofetilide binding displacement assay.
Another data set can be described thus: in vitro. Particulars: human, HepG2 cells.
Data set [9] relates to Mycobacterium tuberculosis. The data set can be described thus: microbe, parasite or virus in culture. Conditions: H37Rv, THP-1, 96 h.
Description: Antitubercular activity against Mycobacterium tuberculosis H37Rv infected in human THP1 macrophages incubated for 4 days by luciferase reporter gene assay
Data set [10] relates to HepG2. The data set can be described thus: Cytotoxicity against human HepG2 cells assessed as compound concentration causing changes in mitochondrial potential by Cell Health assay. The data set is classed as cell-based.
In data set [11] the test system is HepG2. The data set can be described thus: Cytotoxicity against human HepG2 cells assessed as compound concentration causing changes in membrane permeability by Cell Health assay. The data set is classed as cell-based.
The test system of data set [12] is Mus musculus. The data set can be described thus: Dose normalized AUC (0 to infinity) in C57BL/6 mouse at 1 mg/kg, iv after 1 to 24 hrs by LC-MS/MS method. The data set is classed as ADME, organism-based. Conditions: in vivo.
Data set [13] deals with Mycobacterium tuberculosis. The data set is classed as functional, H37Rv.
Data set [14] can be described thus: Tmax in C57BL/6 mouse at 50 mg/kg, po after 1 to 24 hrs by LC-MS/MS method. The data set is classed as ADME, organism-based. Particulars: in vivo.
Data set [15] is described as follows: Half life in C57BL/6 mouse at 1 mg/kg, iv after 1 to 24 hrs by LC-MS/MS method. The data set is classed as ADME, organism-based. Particulars: in vivo.
Data set [16] can be described thus: Volume of distribution at steady state in C57BL/6 mouse at 1 mg/kg, iv after 1 to 24 hrs by LC-MS/MS method. The data set is classed as ADME, organism-based. Particulars: in vivo, read-out: Vdss.
Data set [17] is described as follows: AUC (0 to infinity) in C57BL/6 mouse at 1 mg/kg, iv after 1 to 24 hrs by LC-MS/MS method. The data set is classed as ADME, organism-based. The arrangement: dose 1 mg/kg, time infinity, route intravenous. Particulars: in vivo.
Data set [18] is described as follows: Clearance in C57BL/6 mouse at 1 mg/kg, iv after 1 to 24 hrs by LC-MS/MS method. The data set is classed as ADME, organism-based. Particulars: in vivo.
The nature of data set [19]: Cmax in C57BL/6 mouse at 50 mg/kg, po after 1 to 24 hrs by LC-MS/MS method. The data set is classed as ADME, organism-based. The arrangement: dose 50 mg/kg, route oral. Conditions: in vivo.
Data set [20] in a line: Oral bioavailability in C57BL/6 mouse at 50 mg/kg after 1 to 24 hrs by LC-MS/MS method. The data set is classed as ADME, organism-based. Conditions: in vivo.
Data set [21] concerns Mus musculus. The data set can be described thus: Tlast in C57BL/6 mouse at 50 mg/kg, po after 1 to 24 hrs by LC-MS/MS method. The data set is classed as ADME, organism-based. Particulars: in vivo.
The nature of data set [22]: Half life in C57BL/6 mouse at 4 mg/kg, iv after 1 to 24 hrs by LC-MS/MS method. The data set is classed as ADME, organism-based. Conditions: in vivo.
Data set [23] can be described thus: Volume of distribution at steady state in C57BL/6 mouse at 4 mg/kg, iv after 1 to 24 hrs by LC-MS/MS method. Particulars: in vivo, read-out: Vdss. The data set is classed as ADME, organism-based.
The subject of data set [24] is Mus musculus. In words: Dose normalized AUC (0 to infinity) in C57BL/6 mouse at 4 mg/kg, iv after 1 to 24 hrs by LC-MS/MS method. The data set is classed as ADME, organism-based. Particulars: in vivo.
Data set [25] can be described thus: AUC (0 to infinity) in C57BL/6 mouse at 4 mg/kg, iv after 1 to 24 hrs by LC-MS/MS method. The data set is classed as ADME, organism-based. The arrangement: dose 4 mg/kg, route intravenous, time infinity. Particulars: in vivo.
The nature of data set [26]: Clearance in C57BL/6 mouse at 4 mg/kg, iv after 1 to 24 hrs by LC-MS/MS method. The data set is classed as ADME, organism-based. Particulars: in vivo.
Data set [27] deals with Mycobacterium tuberculosis. The data set is classed as functional, H37Rv. This is another data set of the same source.

Each structure is given as a SMILES string. ≈ marks a conversion by molar mass, not a printed value.

The source of these data is ChEMBL document CHEMBL4251653, “In vivo potent BM635 analogue with improved drug-like properties” (Eur J Med Chem, 2018).

Albumin, sequence (P02768 whole entry): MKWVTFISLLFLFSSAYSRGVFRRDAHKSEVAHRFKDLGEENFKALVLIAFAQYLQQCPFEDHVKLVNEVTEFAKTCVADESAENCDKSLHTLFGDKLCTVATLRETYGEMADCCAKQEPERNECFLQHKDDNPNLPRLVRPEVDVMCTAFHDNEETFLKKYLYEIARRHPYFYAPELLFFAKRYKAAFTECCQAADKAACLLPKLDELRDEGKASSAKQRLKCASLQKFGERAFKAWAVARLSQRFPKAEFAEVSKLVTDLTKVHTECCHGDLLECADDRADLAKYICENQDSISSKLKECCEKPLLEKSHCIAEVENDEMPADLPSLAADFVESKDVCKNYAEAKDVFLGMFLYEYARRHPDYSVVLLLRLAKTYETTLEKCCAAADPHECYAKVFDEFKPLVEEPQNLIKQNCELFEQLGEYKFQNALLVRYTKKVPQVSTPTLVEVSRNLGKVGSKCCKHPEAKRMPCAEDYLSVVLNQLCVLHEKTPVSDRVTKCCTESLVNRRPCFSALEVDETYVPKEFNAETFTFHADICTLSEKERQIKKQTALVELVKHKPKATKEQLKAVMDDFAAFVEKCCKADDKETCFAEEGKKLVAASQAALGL
Voltage-gated inwardly rectifying potassium channel KCNH2, sequence (Q12809 whole entry): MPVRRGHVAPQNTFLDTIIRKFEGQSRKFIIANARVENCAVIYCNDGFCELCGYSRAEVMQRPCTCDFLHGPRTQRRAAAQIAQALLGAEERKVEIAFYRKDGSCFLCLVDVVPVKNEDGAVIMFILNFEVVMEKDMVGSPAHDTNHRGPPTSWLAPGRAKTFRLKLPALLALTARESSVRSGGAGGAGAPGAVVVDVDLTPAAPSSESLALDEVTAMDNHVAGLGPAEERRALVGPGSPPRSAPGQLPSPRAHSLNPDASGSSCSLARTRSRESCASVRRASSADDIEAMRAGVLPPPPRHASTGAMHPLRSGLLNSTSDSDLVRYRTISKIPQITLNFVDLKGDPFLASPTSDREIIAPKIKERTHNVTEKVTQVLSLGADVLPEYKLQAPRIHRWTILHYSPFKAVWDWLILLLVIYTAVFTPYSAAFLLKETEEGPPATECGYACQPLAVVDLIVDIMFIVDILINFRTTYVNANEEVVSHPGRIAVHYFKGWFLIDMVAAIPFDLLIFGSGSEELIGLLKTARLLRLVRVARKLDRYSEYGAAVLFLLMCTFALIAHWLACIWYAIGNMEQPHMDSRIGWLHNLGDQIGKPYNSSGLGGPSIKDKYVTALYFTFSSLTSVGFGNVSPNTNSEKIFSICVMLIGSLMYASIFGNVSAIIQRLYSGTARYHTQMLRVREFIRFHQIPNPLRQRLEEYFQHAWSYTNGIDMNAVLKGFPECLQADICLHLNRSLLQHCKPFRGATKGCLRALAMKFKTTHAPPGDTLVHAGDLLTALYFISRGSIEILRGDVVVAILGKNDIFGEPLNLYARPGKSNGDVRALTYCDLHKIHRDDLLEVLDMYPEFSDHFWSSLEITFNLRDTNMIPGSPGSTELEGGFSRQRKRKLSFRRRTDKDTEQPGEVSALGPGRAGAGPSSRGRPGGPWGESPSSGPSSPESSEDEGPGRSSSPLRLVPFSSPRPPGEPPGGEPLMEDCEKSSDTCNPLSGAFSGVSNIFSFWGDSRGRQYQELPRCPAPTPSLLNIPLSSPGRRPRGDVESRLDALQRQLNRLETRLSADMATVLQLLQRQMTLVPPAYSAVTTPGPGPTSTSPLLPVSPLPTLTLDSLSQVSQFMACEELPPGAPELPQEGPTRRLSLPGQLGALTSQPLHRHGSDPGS
Description for in vitro: Selectivity index, ratio of TC50 for human HepG2 cells to MIC for Mycobacterium tuberculosis

On to `Cc1c(CN2CCOCC2)cc(-c2ccc(C(C)C)cc2)n1-c1ccc(F)cc1`, for which the Papp in data set [1] came out at 24 ×10⁻⁶ cm/s. For the same compound, in data set [2], the solubility kinetic at 1 h is below 1 µM. In addition, the CC50 at 48 h in [3] is 40 µM. In addition, the Activity at Albumin was 98.37%; in the data set with HepG2 [7], above 40 µM; in the data set with HepG2 [10], above 40 µM; in the data set on HepG2 [11], above 40 µM. In addition, the MIC in data set [4] came out at 0.12 µM (≈ 0.0471 µg/mL). In [5], this compound returned a solubility at 4 h of 5 µg/mL (≈ 12.7 µM). Also, in data set [6] (read-out: logD), the logD turned out to be 8.1. Also, the 50% inhibitory concentration (IC50) in data set [8] was determined as 10 µM; in data set [9], 0.1 µM. Moreover, the selectivity ratio in “in vitro” came out at 333.

Regarding `Cc1c(CN2CCOCC2)cc(-c2ccc(C(C)C)cc2)n1C1CCCCC1`, the Papp in data set [1] stood at 27 ×10⁻⁶ cm/s. For the same compound, the solubility kinetic at 1 h in [2] was below 1 µM. Moreover, in data set [3], the CC50 at 48 h was above 100 µM. The Activity is 98.1% on Albumin, above 200 µM in the data set with HepG2 [7], above 200 µM in the data set on HepG2 [10] and above 200 µM in the data set on HepG2 [11]. This compound returned an MIC in [4] of 0.3 µM (≈ 0.114 µg/mL). For the same compound, in [6], the logD is 9.13. Moreover, the figures for the IC50 in data set [8] and in [9] were 50 µM and 0.63 µM, respectively. In addition, the selectivity ratio in “in vitro” is above 267.

Consider `Cc1c(CN2CCOCC2)cc(-c2ccc(C(C)C)cc2)n1C1CC1`, for which, in data set [2], the solubility kinetic at 1 h worked out at 181 µM (≈ 61.3 µg/mL). The CC50 at 48 h in [3] stood at 20 µM. Also, the Activity at Albumin came out at 96.49%; in the data set on HepG2 [7], 40 µM; with HepG2 [10] it was 50 µM; in the data set on HepG2 [11], 40 µM. In data set [4], the MIC came to 0.3 µM (≈ 0.102 µg/mL). Also, the solubility at 4 h in [5] turned out to be 511 µg/mL (≈ 1510 µM). Besides, in data set [6] (read-out: logD), the logD was found to be 7.21. Moreover, the IC50 was 8 µM in [8] and 0.2 µM in [9]. In “in vitro”, the selectivity ratio was found to be 67.

In the data set on Mus musculus [12], `Cc1c(CN2CCOCC2)cc(-c2ccc(C(C)C)cc2)n1C1CCCOC1` (stereo unspecified) came in with an AUC/dose of 138 ng·h/mL/mg/kg. The Activity was 0.1 log10CFU in data set [13]; 92.85% on Albumin; above 200 µM with HepG2 [7]; above 200 µM in the data set on HepG2 [10]; above 200 µM in the data set with HepG2 [11]. Further, the Papp in data set [1] turned out to be 73 ×10⁻⁶ cm/s. Moreover, the Tmax in data set [14] was found to be 54 min. In data set [2], the solubility kinetic at 1 h turned out to be 241 µM (≈ 92.2 µg/mL). Moreover, the CC50 at 48 h in [3] came to 50 µM. The same compound had a half-life in data set [15] of 24 min. Moreover, in [16], the Vd was 3.5 L/kg. The MIC in data set [4] amounted to 0.15 µM (≈ 0.0574 µg/mL). The compound further had an AUC(0-inf) in data set [17] of 138 ng·h/mL. Moreover, the clearance in [18] is 125 mL/min/kg. The solubility at 4 h in [5] came out at 43 µg/mL (≈ 112 µM). Also, the logD in [6] (read-out: logD) came to 6.86. Moreover, the values for the IC50 in [8] and in data set [9] were 10 µM and 0.3 µM, respectively. The selectivity ratio in the data set “in vitro” came out at 333. Besides, the highest level in [19] (Cmax) was 548 ng/mL. For the same compound, in data set [20], the bioavailability was found to be 23%. In the data set on Mus musculus [21], this compound returned a Tlast of 8 h.

The compound `Cc1c(CN2CCOCC2)cc(-c2ccc(C(C)C)cc2)n1C(C)C` showed a half-life in data set [22] of 102 min. Also, the Vd in data set [23] amounted to 1.8 L/kg. The Activity in data set [13] is 1.5 log10CFU; at Albumin it was 94.11%; in the data set on HepG2 [7], 25 µM; in the data set on HepG2 [10] it was 32 µM; with HepG2 [11], 32 µM. For the same compound, in data set [1], the Papp was found to be 72 ×10⁻⁶ cm/s. Further, in data set [14], the Tmax is 42 min. Moreover, in [2], the solubility kinetic at 1 h came to 199 µM (≈ 67.8 µg/mL). In addition, the CC50 at 48 h in data set [3] was found to be 20 µM. The compound further returned an AUC/dose with Mus musculus [24] of 1006 ng·h/mL/mg/kg. This compound yielded an AUC(0-inf) in data set [25] of 4020 ng·h/mL. Moreover, the clearance in [26] came out at 16.9 mL/min/kg. Also, the MIC in data set [4] was determined as 0.15 µM (≈ 0.0511 µg/mL). Besides, the concentration in solution in [5] (solubility at 4 h) came to 249 µg/mL (≈ 731 µM). Also, the logD in data set [6] (read-out: logD) stood at 7.68. This compound also came in with a Cmax in data set [19] of 177 ng/mL. In data set [20], the bioavailability came to 1.2%. In addition, the Tlast with Mus musculus [21] turned out to be 7.3 h.

`COc1c(N2C[C@@H]3CCCN[C@@H]3C2)c(F)cc2c(=O)c(C(=O)O)cn(C3CC3)c12` [MOXIFLOXACIN]: the Activity in data set [27] amounted to 3.1 log10CFU.

What is called solubility is how much of the substance goes into solution per volume. Higher therefore signals much dissolved substance. As usually defined, the logD is lipophilicity at a set pH, counting ionised and neutral species. As usually defined, the IC50 is the concentration at which inhibition is half-maximal. Higher therefore signals lower potency. The Tmax is the time at which the peak concentration occurs. By half-life is commonly meant the time needed for the level to fall by half in the phase considered. As a reminder, the AUC(0-inf) is the area under the concentration-time curve extrapolated to infinity. The low end stands for low exposure, the high end for high exposure. By clearance is commonly meant the volume of plasma or blood freed of the substance per unit of time. Read a low clearance as a low capacity for elimination. Broadly, the Cmax is the highest concentration seen after dosing. The term bioavailability denotes the share of a dose that reaches the circulation, judged against a reference dose that is usually intravenous. A higher bioavailability goes with much systemic uptake.
